Reference: patent US20080103048A1, “Methods for the production of granular composite pesticidal compositions and the compositions produced thereby” (priority 2006, published 2008)

Assay: Solubility of non-cyano containing pyrethroids in non-polar solvents
Format: physicochemical
Protocol: Specifically, samples were prepared in 4 ounce glass bottles by combining the non-cyano containing pyrethroids Bifenthrin Technical (supplied by FMC Corporation) and Permethrin Technical sold by Gharda USA, Inc with various non-polar solvents at 10%, 25% and 50% rates by mass (total mass of each sample being 40 grams) so that the 10% formulation contained 4 g of the pyrethroid and 36 g solvent; the 25% formulation contained 10 g of the pyrethroid and 30 g solvent; and the 50% formulation contained 20 g of the pyrethroid and 20 g solvent. Each of the resulting solutions was stirred vigorously in the bottles until a clear solution was obtained. The initial temperatures of the solutions in each of bottles was recorded before the bottles were heated on a laboratory hot plate Each of the solutions was stirred constantly while the solution was being heated on the hot plate and the solutions were frequently observed for signs of any visible separation between the solvent and the solute. […] The final temperature of the solutions in each of the bottles was recorded and it was noted that the temperature required to achieve full miscibility of the pyrethroids in the solvents was up to about 80° C.
In the following Table III, each of the non-cyano containing pyrethroids that were tested and each of the non-polar solvents which were employed with such pyrethroids are listed as well as the initial temperature of the solution and the final temperature resulting in full miscibility of the components.

[1] = Canola Oil (Stepsol ROW-W), 10% pyrethroid by mass
[2] = Canola Oil (Stepsol ROW-W), 25% pyrethroid by mass
[3] = Canola Oil (Stepsol ROW-W), 50% pyrethroid by mass
[4] = Polybutene H-7, 10% pyrethroid by mass
[5] = Polybutene H-7, 25% pyrethroid by mass
[6] = Polybutene H-7, 50% pyrethroid by mass
[7] = Polybutene H-8, 10% pyrethroid by mass
[8] = Polybutene H-8, 25% pyrethroid by mass
[9] = Polybutene H-8, 50% pyrethroid by mass
[10] = Polybutene L-14, 10% pyrethroid by mass
[11] = Polybutene L-14, 25% pyrethroid by mass
[12] = Polybutene L-14, 50% pyrethroid by mass
[13] = Polybutene L-50, 10% pyrethroid by mass
[14] = Polybutene L-50, 25% pyrethroid by mass
[15] = Polybutene L-50, 50% pyrethroid by mass
[16] = Safflower Oil, 10% pyrethroid by mass
[17] = Safflower Oil, 25% pyrethroid by mass
[18] = Safflower Oil, 50% pyrethroid by mass

SMILES: Cc1c(COC(=O)[C@H]2[C@@H](/C=C(/Cl)C(F)(F)F)C2(C)C)cccc1-c1ccccc1 [Bifenthrin Tech., bifenthrin]
- Final Temp. (resulting in full miscibility) [1]: 45 °C
- Final Temp. (resulting in full miscibility) [2]: 57 °C
- Final Temp. (resulting in full miscibility) [3]: 74 °C
- Final Temp. (resulting in full miscibility) [4]: 45 °C
- Final Temp. (resulting in full miscibility) [5]: 41 °C
- Final Temp. (resulting in full miscibility) [6]: 41 °C
- Final Temp. (resulting in full miscibility) [7]: 37 °C
- Final Temp. (resulting in full miscibility) [8]: 50 °C
- Final Temp. (resulting in full miscibility) [9]: 36 °C
- Final Temp. (resulting in full miscibility) [10]: 30 °C
- Final Temp. (resulting in full miscibility) [11]: 40 °C
- Final Temp. (resulting in full miscibility) [12]: 43 °C
- Final Temp. (resulting in full miscibility) [13]: 37 °C
- Final Temp. (resulting in full miscibility) [14]: 35 °C
- Final Temp. (resulting in full miscibility) [15]: 43 °C
- Final Temp. (resulting in full miscibility) [16]: 80 °C
- Final Temp. (resulting in full miscibility) [17]: 80 °C
- Final Temp. (resulting in full miscibility) [18]: 80 °C
- solubility and stability in polybutene L-14 (over a range of concentrations): soluble and stable

SMILES: CC1(C)C(C=C(Cl)Cl)C1C(=O)OCc1cccc(Oc2ccccc2)c1 (stereo not shown) [Permethrin Tech., permethrin]
- Final Temp. (resulting in full miscibility) [1]: 26 °C
- Final Temp. (resulting in full miscibility) [2]: 27 °C
- Final Temp. (resulting in full miscibility) [3]: 30 °C
- Final Temp. (resulting in full miscibility) [4]: 29 °C
- Final Temp. (resulting in full miscibility) [5]: 33 °C
- Final Temp. (resulting in full miscibility) [6]: 50 °C
- Final Temp. (resulting in full miscibility) [7]: 51 °C
- Final Temp. (resulting in full miscibility) [8]: 54 °C
- Final Temp. (resulting in full miscibility) [9]: 62 °C
- Final Temp. (resulting in full miscibility) [10]: 26 °C
- Final Temp. (resulting in full miscibility) [11]: 28 °C
- Final Temp. (resulting in full miscibility) [12]: 31 °C
- Final Temp. (resulting in full miscibility) [13]: 35 °C
- Final Temp. (resulting in full miscibility) [14]: 51 °C
- Final Temp. (resulting in full miscibility) [15]: 54 °C
- Final Temp. (resulting in full miscibility) [16]: 80 °C
- Final Temp. (resulting in full miscibility) [17]: 80 °C
- Final Temp. (resulting in full miscibility) [18]: 80 °C
